Calls of active or inactive are those of the source. The calls are words filed in the database; no cut-off is given here.
Tests used:
[1] = target: Estrogen receptor beta (Mus musculus) (UniProt O08537); test: Up regulation of ERbeta expression in mouse calvarial osteoblasts at 1 to 100 pM after 48 hrs by Western blot analysis
Calvarial osteoblast [2] = test: Cytotoxicity against mouse calvarial osteoblasts at 0.000001 to 1 uM after 48 hrs by MTT assay; format: cell-based
[3] = target: Estrogen receptor beta (Mus musculus) (UniProt O08537); test: Activation of ERbeta in mouse calvarial osteoblasts assessed as induction of osteoblast differentiation by measuring increase in ALP activity at 1 pM using PNPP as substrate after 48 hrs by colorimetric method
Calvarial osteoblast [4] = test: Induction of osteoblast differentiation in mouse calvarial osteoblasts assessed as increase in osterix mRNA expression at 1 to 100 pM after 48 hrs by SYBR green1 staining based RT-qPCR analysis; format: functional, cell-based
Calvarial osteoblast [5] = test: Induction of osteoblast differentiation in mouse calvarial osteoblasts assessed as increase in RUNX2 mRNA expression at 1 to 100 pM after 48 hrs by SYBR green1 staining based RT-qPCR analysis; format: functional, cell-based
[6] = target: Estrogen receptor beta (Mus musculus) (UniProt O08537); test: Activation of ERbeta in mouse calvarial osteoblasts assessed as induction of mineralization by measuring increase in calcium nodules at 1 pM supplemented with fresh medium containing compounds every 48 hrs for 18 days measured on day 18 by alizarin red-S staining based colorimetric method relative to control
[7] = target: T1, Estrogen receptor (Mus musculus) (UniProt P19785); test: Up regulation of ERalpha expression in mouse calvarial osteoblasts at 1 to 100 pM after 48 hrs by Western blot analysis
T1 sequence (whole entry): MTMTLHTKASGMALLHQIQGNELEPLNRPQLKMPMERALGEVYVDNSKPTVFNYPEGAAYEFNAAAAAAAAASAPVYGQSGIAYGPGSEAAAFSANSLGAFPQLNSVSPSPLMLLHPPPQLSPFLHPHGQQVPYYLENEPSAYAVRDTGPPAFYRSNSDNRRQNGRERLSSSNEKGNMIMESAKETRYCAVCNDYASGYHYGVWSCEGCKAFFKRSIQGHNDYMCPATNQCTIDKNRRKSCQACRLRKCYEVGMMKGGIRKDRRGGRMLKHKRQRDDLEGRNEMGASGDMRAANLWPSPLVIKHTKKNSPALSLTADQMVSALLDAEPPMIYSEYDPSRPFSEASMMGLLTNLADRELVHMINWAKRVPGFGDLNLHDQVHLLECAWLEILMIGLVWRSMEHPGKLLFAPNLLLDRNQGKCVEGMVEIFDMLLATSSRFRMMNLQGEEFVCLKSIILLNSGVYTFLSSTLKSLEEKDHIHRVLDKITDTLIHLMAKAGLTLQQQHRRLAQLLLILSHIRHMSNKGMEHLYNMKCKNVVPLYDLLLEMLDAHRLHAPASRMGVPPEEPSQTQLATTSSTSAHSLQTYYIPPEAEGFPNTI

Calvarial osteoblast [8] = test: Induction of osteoblast differentiation in mouse calvarial osteoblasts assessed as increase in BMP2 mRNA expression at 1 to 100 pM after 48 hrs by SYBR green1 staining based RT-qPCR analysis; format: functional, cell-based

Estrogen receptor beta (Mus musculus), sequence (O08537 whole entry): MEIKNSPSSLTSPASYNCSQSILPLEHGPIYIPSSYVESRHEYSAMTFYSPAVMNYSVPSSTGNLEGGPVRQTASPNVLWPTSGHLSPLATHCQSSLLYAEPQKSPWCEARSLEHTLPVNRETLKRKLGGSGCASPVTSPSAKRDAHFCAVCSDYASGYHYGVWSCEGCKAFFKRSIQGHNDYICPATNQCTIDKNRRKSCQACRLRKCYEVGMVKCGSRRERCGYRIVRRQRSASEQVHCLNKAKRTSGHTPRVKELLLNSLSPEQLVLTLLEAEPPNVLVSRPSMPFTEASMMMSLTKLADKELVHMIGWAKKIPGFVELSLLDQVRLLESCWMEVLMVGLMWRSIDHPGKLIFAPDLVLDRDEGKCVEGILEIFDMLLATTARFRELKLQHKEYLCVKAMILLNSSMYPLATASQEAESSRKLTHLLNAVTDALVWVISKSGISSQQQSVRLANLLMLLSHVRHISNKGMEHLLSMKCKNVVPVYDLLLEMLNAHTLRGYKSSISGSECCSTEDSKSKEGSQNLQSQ

Compound	Activity [1]	Activity (Calvarial osteoblast [2])	Activity [3]	Activity (Calvarial osteoblast [4])	Activity (Calvarial osteoblast [5])	Activity [6] [%]	Activity [7]	Activity (Calvarial osteoblast [8])
COc1ccc(C2COc3cc(OCCCCC(C)(C)O)ccc3C2)cc1 (centres undefined)	Active	Non-Toxic	Active	Active	Active	20	Active	Active
CCC(O)(CC)CCCCOc1ccc2c(c1)OCC(c1ccc(OC)cc1)C2 (centres undefined)	–	Non-Toxic	Active	–	–	–	–	–
COc1ccc(C2COc3cc(OCCCCCC(C)(C)O)ccc3C2)cc1 (centres undefined)	–	Non-Toxic	Active	–	–	–	–	–
CCOC(=O)CCCCCOc1ccc2c(c1)OCC(c1ccc(OC)cc1)C2 (centres undefined)	–	Non-Toxic	Active	–	–	–	–	–

Source: ChEMBL document CHEMBL4190185 (Medchemcomm, 2016)
